The record followed here is US20080103198A1, “METHODS FOR TREATMENT OF COCHLEAR AND VESTIBULAR DISORDERS” (priority 2006, published 2008).

Counter-ions that a name gives are not always drawn.

Test [1] relates to PC12 cells. The test can be described thus: PC12 cell serum withdrawal model (MTS assay). The test is classed as cell-based. Particulars: control cells = 100%. The text has this: Serum withdrawal is a cytotoxic environmental challenge that results in cell death in cultured cell lines as well as in primary cells of various tissue origins, including nerve cells. In particular, pheochromocytoma (PC) 12 cells have been widely employed as an in vitro neuronal cell model for a wide variety of neurodegenerative and cell death related disorders (Muriel, et al, Mitochondrial free calcium levels (Rhod-2 fluorescence) and ultrastructural alterations in neuronally differentiated PC12 cells during ceramide-dependent cell death, J. Comp. Neurol., 2000, 426(2), 297-315; Dermitzaki, et al, Opioids transiently prevent activation of apoptotic mechanisms following short periods of serum withdrawal, J. Neurochem., 2000, 74(3), 960-969; Carlile, et al, Reduced apoptosis after nerve growth factor and serum withdrawal: conversion of tetrameric glyceraldehyde-3-phosphate dehydrogenase to a dimer, Mol. Pharmacol., 2000, 57(1), 2-12).
PC12 cells were cultured in sterile media (RPMI 1640) supplemented with 10% heat-inactivated horse serum and 5% fetal bovine serum (FBS). The culture medium also contained Penicillin-Streptomycin-Neomycin antibiotic (50µg, 50µg, 100µg, respectively). Medium was exchanged every other day and the cells were passed in log phase near confluence.
The control cells were cultured in regular media without any treatment. An enantiomer of Formula 7 or Formula 8 (10µM) was mixed well in the medium and then applied to the cells. For the 2 day assay, an enantiomer of Formula 7 or Formula 8 (10µM) was only applied to the cells once at the time of serum withdrawal. For the 7 day assay, an enantiomer of Formula 7 or Formula 8 (10. mu.M) was applied to the cells at the time of serum withdrawal and every 48 hr thereafter when cells were changed with fresh new serum-free medium. In the serum withdrawal group, the cells were cultured in serum-free medium with no additional enantiomer of Formula 7 or Formula 8. Cell survival was determined by the 3-(4,5-dimethylthiazol-2-yl)-5-(3-carboxy-methoxyphenyl)-2-(4-sulfophenyl)-2H-tetrazolium inner salt (MTS) assay at 2 or 7 days after serum withdrawal.
At the end of the experiment, cells were washed with fresh medium and incubated with MTS solution in a humidified 37° C. with 5% CO2 incubator for 1.5 hr. After the incubation period, the cells were immediately analyzed using a Softmax program (Molecular Devices). […] The assay is based on the cellular conversion of the tetrazolium salt, MTS, into a formazan that is soluble in tissue culture medium and measured directly at 490 nm in 96-well assay plates. The absorbance is directly proportional to the number of living cells in culture. The arbitrary absorbance reading in control cells is expressed as 100% survival rate.
Background: Tetrazolium assays rely on reduction of a dye to a coloured formazan, in cell work by metabolically active cells.

The subject of test [2] is transient cerebral ischemia (MCAO). The test can be described thus: Transient cerebral ischemia middle cerebral artery occlusion (MCAO) rat model. The test is classed as in vivo. Particulars: MK 801 3 mg/kg i.p.; N=12. The method, then: The enantiomer of Formula 7 was investigated in the transient cerebral ischemia middle cerebral artery occlusion (MCAO) rat model (as described in Nagasawa H. and Kogure K., Stroke, 1989, 20, 1037; and, Zea Longa E., Weinstein P. R., Carlson S, and Cummins R., Stroke, 1989, 20, 84) using male Wistar rats at 10 and 100 mg/kg (i.v.). MK 801 (Dizocilpine maleate; CAS Registry number 77086-22-7, a commercially available neuroprotectant compound) was used as a positive control (3 mg/kg, i.p.).
Rats (n=12) were randomly allocated to one of four experimental groups and were anesthetized. Blood flow from the internal carotid artery, anterior cerebral artery and posterior cerebral artery into the middle cerebral artery was blocked by this procedure. One hour after blockage, animals were treated over a 1 hour period with vehicle (administered i.v. over the one hour period), control (administered as a single i.p. dose at the start of the one hour period) and two doses of the enantiomer of Formula 7 (administered i.v. over the one hour period). Two hours after blockage, reperfusion was performed.
The animals were sacrificed and […] coronal sections of each brain were prepared. One in every forty sections (i.e. every […]) from the front to the occipital cortex was used to quantify the extent of the cerebral lesion. Slides were prepared using sections stained (according to the Nissl procedure) with cresyl violet and were examined under a light microscope.
Regional ischemic surface areas in the coronal sections of individual rats were determined according to the presence of cells with morphological changes. The areas of neuronal injury or infarction were measured and then added. The cortex and striatum volume were calculated for each animal (total ischemic surface area×0.8 mm (thickness)).
The mean volumes (.+−.S.E.M.) for each animal randomly assigned to the four experimental groups were compared using one-way ANOVA (one way ANOVA is a statistical method which compares 3 or more unmatched groups) followed by Dunnett's t-test (both methods incorporated in Statview 512+software, BarinPower, Calabasas, Calif., USA).

In the case of `NC(=O)OC[C@H](OC(N)=O)c1ccccc1Cl` [Formula 8], the “2 Day Survival Rate” value in test [1] (10 µM applied once at serum withdrawal) is given as 66.4 ± 5.4^1%. Further, the “7 Day Survival Rate” value in test [1] (10 µM at serum withdrawal and every 48 hr) was 85.2 ± 0.6^2%.

In the case of `C[C@]12N[C@H](Cc3ccccc31)c1ccccc12` [MK 801, Dizocilpine maleate, reference compound], in test [2], the “Mean Infarct Volume ± S.E.M., Cortex Volume” value was 95.8 ± 24.5^1 mm^3; the “Mean Infarct Volume ± S.E.M., Striatum” value was 56.1 ± 5.3^2 mm^3; the “Mean Infarct Volume ± S.E.M., Total” value was 151.9 ± 28.7^1 mm^3.
